The results in this text go back to PMC10809103, “Phosphatidylthreonine is a procoagulant lipid detected in human blood and elevated in coronary artery disease” (Journal of lipid research, 2023).

The target of one test is T1, Factor X (FX) (Homo sapiens, UniProt P00742).
T1 construct: gene F10; zymogen factor X, two-chain; source and preparation only in supplement; with Coagulation factor X (factor X heavy chain)
Description: surface plasmon resonance, lipid in nanodiscs, steady state. The test is classed as binding. The following applies: read-out: Kd (μM) / 40% PS 60% PC. The text has this: surface plasmon resonance, lipid in nanodiscs, steady state on Factor X (FX)

For a further test, the target named is T2, Prothrombin (FII) (Homo sapiens, UniProt P00734).
T2 construct: gene F2; zymogen prothrombin; source and preparation only in supplement
The test is described as above. The test is classed as binding. The conditions noted are these: read-out: Kd (μM) / 40% PS 60% PC. From the text:
surface plasmon resonance, lipid in nanodiscs, steady state on Prothrombin (FII)

Molecules are shown by their SMILES.

T1 sequence (P00742 41-179): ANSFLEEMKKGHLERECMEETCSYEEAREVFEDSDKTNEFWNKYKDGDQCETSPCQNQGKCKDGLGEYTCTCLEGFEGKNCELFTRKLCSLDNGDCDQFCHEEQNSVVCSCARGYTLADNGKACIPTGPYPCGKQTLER
T1 sequence (P00742 183-488): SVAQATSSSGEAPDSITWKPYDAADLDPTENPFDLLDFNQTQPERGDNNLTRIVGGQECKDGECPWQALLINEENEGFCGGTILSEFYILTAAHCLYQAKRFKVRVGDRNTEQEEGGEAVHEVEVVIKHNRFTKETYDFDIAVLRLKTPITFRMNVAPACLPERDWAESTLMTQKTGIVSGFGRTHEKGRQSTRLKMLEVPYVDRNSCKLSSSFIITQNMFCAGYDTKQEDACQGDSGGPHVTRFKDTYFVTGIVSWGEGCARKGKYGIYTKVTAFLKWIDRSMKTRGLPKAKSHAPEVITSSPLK

Turning to `CCCCCCCC/C=C\CCCCCCCC(=O)O[C@H](COC(=O)CCCCCCCCCCCCCCC)COP(=O)(O)OC[C@H](N)C(=O)O` [PS 16:0/18:1(9Z)], the Kd on Factor X (FX) worked out at 1.33 ± 0.191 µM; on Prothrombin (FII), 6.23 ± 0.921 µM.
